With `NC(=O)c1nn([C@H]2O[C@@H](CO)[C@H](O)[C@@H]2O)nc1C(N)=O` [Compound 32, 2-β-L-Ribofuranosyl-1,2,3-triazole-4,5-dicarboxamide], the melting point is 210 to 212 °C.

As for `NC(=O)c1cn([C@H]2O[C@@H](CO)[C@H](O)[C@@H]2O)ccc1=O` [Compound 34, 1-β-L-ribofuranosylpyridine-4-one-3-carboxamide], the melting point fell in the range of 209 to 211 °C.

With `Cc1cc(=O)[nH]c(=O)n1[C@H]1O[C@@H](CO)[C@H](O)[C@@H]1O` [Compound 41, 1-β-L-Ribofuranosyl-6-methyluracil], the melting point fell in the range of 175 to 177 °C.

As for `NC(=O)c1ncn([C@H]2O[C@@H](CO)[C@H](O)[C@@H]2O)c1C(N)=O` [Compound 48, 1-β-L-Ribofuranosylimidazole-4,5-dicarboxamide], the melting point was 224 to 226 °C.

As to `NC(=O)c1nc([C@H]2O[C@@H](CO)[C@H](O)[C@@H]2O)n[nH]1` [Compound 68, 3-β-L-Ribofuranosyl-1,2,4-triazole-5-carboxamide], the melting point was in the range of 193 to 195 °C.

In general, melting point refers to the temperature, or range, at which the solid turns liquid.
